Reference: patent US11214803B2, “Modulators of YAP1 expression” (Ionis Pharmaceuticals, Inc., priority 2019, dated 2022)
pIC50: −log10 of the molar value. Strand notation (5' to 3'): a small letter for the sugar, then the base; units joined by * are phosphorothioate-linked, units joined directly phosphodiester-linked; [ ] holds rarer units or linkages, { } end groups; capitals alone tell only the bases. k = constrained ethyl (cEt); [5mC] = 5-methylcytosine; d = 2'-deoxy (DNA)

Key:
[1] = Tolerability in Balb/c mice, body and organ weights (Example 11); assay type: in vivo; details: 50 mg/kg subcutaneously twice a week for four weeks, end of study
Protocol: (§1) Groups of male Balb/c mice at 4-6 weeks of age (obtained from Taconic) were injected subcutaneously twice a week for four weeks (for a total of 8 treatments) with 50 mg/kg of modified oligonucleotides. One group of male Balb/c mice was injected with PBS. Mice were euthanized on day 26 post start of treatment (24 hours following the final administration).
(§2) Body weights of Balb/c mice were measured at the end of the study, and the average body weight for each group is presented in the table below. Modified oligonucleotides that caused any changes in organ weights outside the expected range for modified oligonucleotides were excluded from further studies.

[2] = Tolerability in Balb/c mice, plasma chemistry markers (Example 11); assay type: in vivo; details: 50 mg/kg subcutaneously twice a week for four weeks
Protocol: (§3) Balb/c mice were treated with modified oligonucleotides selected from studies described above and evaluated for changes in the levels of various plasma chemistry markers.
as §1

Yap1 mRNA [3] = assay: Dose-dependent inhibition of human Yap1 in A-431 cells (Example 6, 5,000 cells per well, RTS4814); assay type: cell-based; details: for Yap1 mRNA, % UTC: 48 hours; for % UTC 148 nM / % UTC 444 nM / % UTC 1333 nM / % UTC 4000 nM: approximately 48 hours
Method in brief: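 A-431 cells (5,000/well) took up oligonucleotides by free uptake at various doses for about 48 h. Yap1 mRNA was measured by RT-PCR (RTS4814), normalised to RIBOGREEN total RNA and expressed as % untreated control; IC50 by linear regression on a log/linear plot.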

Yap1 mRNA [4] = assay: Dose-dependent inhibition of human Yap1 in SNU-449 cells (Example 9, RTS36584); assay type: cell-based; details: free uptake; for % UTC (Yap1 mRNA): approximately 48 hours
Method in brief: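 Read-out was Yap1 mRNA (primer-probe RTS36584) normalised to total RNA by RIBOGREEN, given as % of untreated cells, with IC50 fitted by linear regression of log/linear data. Oligonucleotides were dosed by free uptake to SNU-449 cells, 10,000/well, for ~48 h.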

[5] = Tolerability in Balb/c mice, body and organ weights (Example 12); assay type: in vivo; details: male Balb/c mice, 50 mg/kg s.c. twice a week for four weeks (8 treatments), end of study (day 26)
Protocol: (§4) Groups of male Balb/c mice at 6-7 weeks of age (obtained from Taconic) were injected subcutaneously twice a week for four weeks (for a total of 8 treatments) with 50 mg/kg of modified oligonucleotides. One group of male Balb/c mice was injected with PBS. Mice were euthanized on day 26 post start of treatment (24 hours following the final administration).
as §2

Yap1 mRNA [6] = assay: Dose-dependent inhibition of human Yap1 in A-431 cells (Example 7, 10,000 cells per well, RTS36584); assay type: cell-based; details: free uptake
Method in brief: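 Yap1 mRNA was expressed as percent of untreated control after normalization to total RNA (RIBOGREEN), and IC50 was derived by log/linear linear regression. The read-out used primer-probe set RTS36584 roughly 48 hours after free-uptake dosing of oligonucleotides into A-431 cells (10,000 cells/well).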

[7] = Tolerability in Balb/c mice, plasma chemistry markers (Example 12); assay type: in vivo; details: 50 mg/kg subcutaneously twice a week for four weeks
Protocol: as §3, §4

[8] = Table 55, 148 nM, free uptake, A-431 cells 5,000 cells per well, RTS4814
[9] = Table 55, 444 nM, free uptake, A-431 cells 5,000 cells per well, RTS4814
[10] = Table 55, 1333 nM, free uptake, A-431 cells 5,000 cells per well, RTS4814
[11] = Table 55, 4000 nM, free uptake, A-431 cells 5,000 cells per well, RTS4814
[12] = Table 55, A-431 cells 5,000 cells per well, free uptake, RTS4814
[13] = Table 54, A-431 cells, Yap1 mRNA, linear regression on a log/linear plot
[14] = Table 54, A-431 cells, free uptake, 148 nM, RTS4814
[15] = Table 54, A-431 cells, free uptake, 444 nM, RTS4814
[16] = Table 54, A-431 cells, free uptake, 1333 nM, RTS4814
[17] = Table 54, A-431 cells, free uptake, 4000 nM, RTS4814
[18] = Table 53, A-431 cells, Yap1 mRNA, linear regression on a log/linear plot
[19] = Table 53, A-431 cells, free uptake, 148 nM, RTS4814
[20] = Table 53, A-431 cells, free uptake, 444 nM, RTS4814
[21] = Table 53, A-431 cells, free uptake, 1333 nM, RTS4814
[22] = Table 53, A-431 cells, free uptake, 4000 nM, RTS4814

| Substance | Kidney weight [1] [g] | Liver weight [1] [g] | Spleen weight [1] [g] | body weight [1] [g] | ALT [2] [U/L] | AST [2] [U/L] | BUN [2] [mg/dL] | TBIL [2] [mg/dL] | Yap1 mRNA, % UTC (Yap1 mRNA [3]; [8]) [% UTC] | Yap1 mRNA, % UTC (Yap1 mRNA [3]; [9]) [% UTC] | Yap1 mRNA, % UTC (Yap1 mRNA [3]; [10]) [% UTC] | Yap1 mRNA, % UTC (Yap1 mRNA [3]; [11]) [% UTC] | pIC50 (Yap1 mRNA [3]; [12]) | other results |
| --- | --- | --- | --- | --- | --- | --- | --- | --- | --- | --- | --- | --- | --- | --- |
| 716480 (antisense kG*k[5mC]*kA*dA*dG*dT*d[5mC]*dT*dT*dG*dT*dA*dA*kG*kT*kA) [compound 716480] | 0.34 | 2.58 | 0.10 | 21 | 2156 | 844 | 19 | 0.14 | 80 | 56 | 38 | 39 | 6.00 | – |
| 716424 (antisense kG*k[5mC]*kA*dA*dT*dG*dG*dA*d[5mC]*dA*dA*dG*dG*kA*kA*kG) [compound 716424] | 0.36 | 2.08 | 0.15 | 23 | 2077 | 1422 | 20 | 0.22 | – | – | – | – | – | pIC50 (Yap1 mRNA [3]; [13]): 5.70; % UTC 148 nM (Yap1 mRNA [3]; [14]): 76 % UTC; % UTC 444 nM (Yap1 mRNA [3]; [15]): 69 % UTC; % UTC 1333 nM (Yap1 mRNA [3]; [16]): 51 % UTC; % UTC 4000 nM (Yap1 mRNA [3]; [17]): 44 % UTC |
| 716513 (antisense kA*kA*kT*d[5mC]*dT*dT*dA*dA*dT*d[5mC]*dT*dG*dT*kG*kG*k[5mC]) [compound 716513] | 0.41 | 1.59 | 0.18 | 25 | 325 | 229 | 17 | 0.14 | 82 | 73 | 39 | 39 | 5.85 | – |
| 715473 (kT*k[5mC]*kT*dT*dT*dA*dT*d[5mC]*dT*dA*dG*d[5mC]*dT*kT*kG*kG; antisense) [compound 715473] | 0.31 | 1.46 | 0.09 | 20 | 3046 | 2861 | 20 | 2.77 | – | – | – | – | – | pIC50 (Yap1 mRNA [3]; [18]): 5.89; % UTC 148 nM (Yap1 mRNA [3]; [19]): 89 % UTC; % UTC 444 nM (Yap1 mRNA [3]; [20]): 67 % UTC; % UTC 1333 nM (Yap1 mRNA [3]; [21]): 50 % UTC; % UTC 4000 nM (Yap1 mRNA [3]; [22]): 30 % UTC |
| 716455 (antisense kG*kT*kT*dA*dT*dG*dT*dT*dT*dG*dG*dG*dT*kG*kT*kG) [compound 716455] | 0.32 | 2.66 | 0.14 | 21 | 1089 | 1193 | 22 | 0.25 | 95 | 70 | 49 | 25 | 5.92 | – |
| 958590 (kA*kG*kG*dT*dA*dT*dA*dA*d[5mC]*dT*dG*dG*dG*k[5mC]*kA*kA) [compound 958590] | – | – | – | – | – | – | – | – | – | – | – | – | – | % UTC (Yap1 mRNA) (Yap1 mRNA [4]; 31.3 nM): 69 % UTC; % UTC (Yap1 mRNA) (Yap1 mRNA [4]; 125.0 nM): 52 % UTC; % UTC (Yap1 mRNA) (Yap1 mRNA [4]; 500.0 nM): 29 % UTC; % UTC (Yap1 mRNA) (Yap1 mRNA [4]; 2000.00 nM): 12 % UTC; pIC50 (Yap1 mRNA [4]; linear regression on a log/linear plot): 7.00; Kidney weight [5]: 0.40 g; Liver weight [5]: 1.76 g; Spleen weight [5]: 0.13 g; body weight [5]: 25 g; Yap1 mRNA, % UTC (Yap1 mRNA [6]; 15.6 nM, A-431 cells, 10,000 cells per well, approximately 48 hours): 71 % UTC; Yap1 mRNA, % UTC (Yap1 mRNA [6]; 62.5 nM, A-431 cells, 10,000 cells per well, approximately 48 hours): 33 % UTC; Yap1 mRNA, % UTC (Yap1 mRNA [6]; 4000.00 nM, A-431 cells, 10,000 cells per well, approximately 48 hours): 4 % UTC; pIC50 (Yap1 mRNA [6]; A-431 cells, approximately 48 hours, linear regression on log/linear plot): 7.52; ALT [7]: 374 U/L; AST [7]: 360 U/L; BUN [7]: 25 mg/dL; TBIL [7]: 0.16 mg/dL |
| 715415 (k[5mC]*kG*kA*dA*d[5mC]*dA*dT*dG*d[5mC]*dT*dG*dT*dG*kG*kA*kG; antisense) [compound 715415] | 0.40 | 1.79 | 0.17 | 25 | 1075 | 701 | 17 | 0.14 | – | – | – | – | – | pIC50 (Yap1 mRNA [3]; [18]): 5.74; % UTC 148 nM (Yap1 mRNA [3]; [19]): 84 % UTC; % UTC 444 nM (Yap1 mRNA [3]; [20]): 59 % UTC; % UTC 1333 nM (Yap1 mRNA [3]; [21]): 55 % UTC; % UTC 4000 nM (Yap1 mRNA [3]; [22]): 42 % UTC |
| 716481 (antisense kT*k[5mC]*kA*dG*d[5mC]*dA*dT*dA*dG*dA*dA*dG*dT*kA*kG*kG) [compound 716481] | 0.36 | 1.99 | 0.13 | 22 | 1935 | 2248 | 21 | 0.46 | – | – | – | – | – | pIC50 (Yap1 mRNA [3]; [13]): 5.70; % UTC 148 nM (Yap1 mRNA [3]; [14]): 89 % UTC; % UTC 444 nM (Yap1 mRNA [3]; [15]): 90 % UTC; % UTC 1333 nM (Yap1 mRNA [3]; [16]): 58 % UTC; % UTC 4000 nM (Yap1 mRNA [3]; [17]): 32 % UTC |
| 958721 (kG*kT*kA*dG*dT*dA*dT*dA*dA*dT*dG*dA*dG*kT*kT*kA; antisense) [compound 958721] | – | – | – | – | – | – | – | – | – | – | – | – | – | Kidney weight [5]: 0.33 g; Liver weight [5]: 1.45 g; Spleen weight [5]: 0.12 g; body weight [5]: 24 g; Yap1 mRNA, % UTC (Yap1 mRNA [6]; Table 56, 15.6 nM, A-431 cells 10,000 cells per well, 48 hours): 72 % UTC; Yap1 mRNA, % UTC (Yap1 mRNA [6]; Table 56, 62.5 nM, A-431 cells 10,000 cells per well, 48 hours): 32 % UTC; Yap1 mRNA, % UTC (Yap1 mRNA [6]; Table 56, 4000.00 nM, A-431 cells 10,000 cells per well, 48 hours): 3 % UTC; pIC50 (Yap1 mRNA [6]; Table 56, A-431 cells 10,000 cells per well): 7.52; ALT [7]: 57 U/L; AST [7]: 114 U/L; BUN [7]: 28 mg/dL; TBIL [7]: 0.17 mg/dL |
